{"source": "paper PMC10108347", "about": "“Heterobifunctional Ligase Recruiters Enable pan-Degradation of Inhibitor of Apoptosis Proteins” (Journal of Medicinal Chemistry, 2023)", "key": {"[1]": {"test_system": "IAPs (cIAP1, cIAP2, XIAP)", "test": "Immunoblotting of IAPs in MM.1S cells, overall degradation profile, time course and washout", "format": "cell-based", "details": "for time to complete degradation of cIAP1, cIAP2 and XIAP: 0.1 μM, time course; for IAP degradation profile (in words): 16 h, western blot, concentration (10 nM to 1 μM)", "protocol": "Next, we examined the persistence of IAP degradation in MM.1S cells after a single exposure to 1 μM of 9 and subsequent removal of the compound. […] The reliance on CRL2^VHL was assessed with a neddylation inhibitor MLN4924, which blocks the activity of CRLs (Figure S13A)."}, "MM.1S cells proteome": {"test_system": "MM.1S cells proteome", "test": "diaPASEF quantitative proteomics in MM.1S cells: proteome-wide degradation selectivity (other proteins)", "format": "cell-based, human", "details": "for Precursor intensity (DIA-NN), CLPX precursor AAAAADLANR2: CLPX_HUMAN (O76031), ATP-dependent Clp protease ATP-binding subunit clpX-like, mitochondrial; for Precursor intensity (DIA-NN), SAMD1 precursor AAAAAATAPPSPGPAQPGPR2: SAMD1_HUMAN (Q6SPF0), Atherin; for Precursor intensity (DIA-NN), ZFP91 precursor AAAAAAAAAVSR2: ZFP91_HUMAN (Q96JP5), E3 ubiquitin-protein ligase ZFP91", "protocol": "To analyze the proteome-wide degradation selectivity of hetero-PROTACs 9, 25, and 27, a diaPASEF-based mass spectrometry approach was employed.[54] MM.1S cells were treated with 100 nM PROTACs for 3 h. […] Accordingly, global proteomic plots show the mathematically imputed levels of IAP proteins in treatment groups if the corresponding IAP was detected in the control treatment (see also Experimental Section).\nMM1s cells were treated with DMSO or 0.1 μM of compound for 3 h. The cells were harvested by centrifugation and washed with phosphate-buffered saline before snap-freezing in liquid nitrogen. The cells were lysed by addition of lysis buffer (8 M urea, 50 mM NaCl, 50 mM 4-(2-hydroxyethyl)-1-piperazine-ethanesulfonic acid (EPPS) pH 8.5, protease, and phosphatase inhibitors) and homogenization by bead beating (BioSpec) for three repeats of 30 s at 2400. Bradford assay was used to determine the final protein concentration in the clarified cell lysate. 50 μg of protein for each sample was reduced, alkylated, and precipitated using methanol/chloroform as previously described,[64] and the resulting washed precipitated protein was allowed to air dry. The precipitated protein was resuspended in 4 M urea, 50 mM HEPES pH 7.4, followed by dilution to 1 M urea with the addition of 200 mM EPPS, pH 8. […] The LysC digestion was diluted to 0.5 M urea with 200 mM EPPS pH 8, followed by digestion with trypsin (1:50; enzyme/protein) for 6 h at 37 °C. Sample digests were acidified with formic acid to a pH of 2–3 prior to desalting using C18 solid-phase extraction plates (SOLA, Thermo Fisher Scientific). Desalted peptides were dried in a vacuum centrifuge and reconstituted in 0.1% formic acid for LC–MS analysis.\nData were collected using a TimsTOF Pro2 (Bruker Daltonics, Bremen, Germany) coupled to a nanoElute LC pump (Bruker Daltonics, Bremen, Germany) via a CaptiveSpray nanoelectrospray source. […] Peptides were separated using a 50 min gradient of 2–30% buffer B (acetonitrile in 0.1% formic acid) with a flow rate of 250 nL/min and column temperature maintained at 50 °C.\nData-Dependent Acquisition (DDA) was performed in the Parallel Accumulation-Serial Fragmentation (PASEF) mode to determine effective ion mobility windows for downstream diaPASEF data collection.[54] The diaPASEF parameters included 100% duty cycle using accumulation and ramp times of 50 ms each, 1 TIMS-MS scan, and 10 PASEF ramps per acquisition cycle. The TIMS-MS survey scan was acquired between 100–1700 m/z and 1/K0 of 0.7–1.3 V × s/cm^2. Precursors with 1–5 charges were selected, and those that reached an intensity threshold of 20,000 arbitrary units were actively excluded for 0.4 min. The quadrupole isolation width was set to 2 m/z for m/z < 700 and 3 m/z for m/z > 800, with the m/z between 700 and 800 m/z being interpolated linearly. […] To perform diaPASEF, the precursor distribution in the DDA m/z-ion mobility plane was used to design an acquisition scheme for DIA data collection, which included two windows in each 50 ms diaPASEF scan. Data was acquired using 16 of these 25 Da precursor double window scans (creating 32 windows), which covered the diagonal scan line for doubly and triply charged precursors, with singly charged precursors able to be excluded by their position in the m/z-ion mobility plane. These precursor isolation windows were defined between 400–1200 m/z and 1/K0 of 0.7–1.3 V × s/cm^2.\nThe diaPASEF raw file processing and controlling peptide and protein level false discovery rates, assembling proteins from peptides, and protein quantification from peptides were performed using library-free analysis in DIA-NN 1.8.[65] The library-free mode performs an in silico digestion of a given protein sequence database alongside deep learning-based predictions to extract the DIA precursor data into a collection of MS^2 spectra."}, "[2]": {"details": "precursor charge 2, per-replicate values (rep1, rep2), listed as Gue3582"}, "[3]": {"details": "MM.1S cells, 0.1 μM, 3 h, log2 fold change compound vs CTRLs (limma)"}, "[4]": {"details": "precursor charge 2, per-replicate values (rep1, rep2)"}, "[5]": {"details": "RL4_HUMAN (P36578), 60S ribosomal protein L4, precursor charge 1, per-replicate values (rep1, rep2)"}, "[6]": {"details": "precursor charge 2, per-replicate values (rep1, rep2), listed as SAB141"}}, "note": "“And” between values parts separate entries of the source, which are not always exact repeats. Equal entries are not always repeated.", "data": [{"smiles": "CN[C@@H](C)C(=O)N[C@H](C(=O)N1C[C@@H](Oc2cccc(OCCCCC(=O)N[C@H](C(=O)N3C[C@H](O)C[C@H]3C(=O)N[C@@H](C)c3ccc(-c4scnc4C)cc3)C(C)(C)C)c2)C[C@H]1C(=O)N[C@@H]1CCCc2ccccc21)C1CCCCC1", "note": "[PROTAC 9, (2S,4S)-1-((S)-2-Cyclohexyl-2-((S)-2-(methylamino)propanamido)acetyl)-4-(3-((5-(((S)-1-((2S,4R)-4-hydroxy-2-(((S)-1-(4-(4-methylthiazol-5-yl)phenyl)ethyl)carbamoyl)pyrrolidin-1-yl)-3,3-dimethyl-1-oxobutan-2-yl)amino)-5-oxopentyl)oxy)phenoxy)-N-((R)-1,2,3,4-tetrahydronaphthalen-1-yl)pyrrolidine-2-carboxamide]", "values": [{"measurement": "time to complete degradation of cIAP1, cIAP2 and XIAP", "setting": "[1]", "result": "≤ 3", "unit": "h"}, {"measurement": "IAP degradation profile (in words)", "setting": "[1]", "result": "induces cIAP1, cIAP2, XIAP, and VHL30 degradation in a dose-dependent manner"}, {"measurement": "persistence of IAP degradation after washout (in words)", "setting": "[1]; single exposure to 1 μM for 16 h, then compound removal", "result": "nearly full and stable pan-degradation of IAPs up to 72 h"}, {"measurement": "Precursor intensity (DIA-NN), CLPX precursor AAAAADLANR2", "setting": "MM.1S cells proteome; [2]", "result": "27158.9 and 21797.6"}, {"measurement": "logFC EIF1AX", "setting": "MM.1S cells proteome; [3]", "result": 0.2289}, {"measurement": "logFC SIGMAR1", "setting": "MM.1S cells proteome; [3]", "result": 0.1571}, {"measurement": "logFC TAF15", "setting": "MM.1S cells proteome; [3]", "result": 0.09552}, {"measurement": "logFC TOP1", "setting": "MM.1S cells proteome; [3]", "result": 0.1861}, {"measurement": "Precursor intensity (DIA-NN), RPL4 precursor AAAAAAALQAK1", "setting": "MM.1S cells proteome; RL4_HUMAN (P36578), 60S ribosomal protein L4, precursor charge 1, per-replicate values (rep1, rep2), listed as Gue3582", "result": "83.0044 and 593.705"}, {"measurement": "Precursor intensity (DIA-NN), RPL4 precursor AAAAAAALQAK2", "setting": "MM.1S cells proteome; RL4_HUMAN (P36578), 60S ribosomal protein L4, precursor charge 2, per-replicate values (rep1, rep2), listed as Gue3582", "result": "450548 and 462008"}, {"measurement": "Precursor intensity (DIA-NN), SAMD1 precursor AAAAAATAPPSPGPAQPGPR2", "setting": "MM.1S cells proteome; [2]", "result": "15172 and 13054.7"}, {"measurement": "Precursor intensity (DIA-NN), ZFP91 precursor AAAAAAAAAVSR2", "setting": "MM.1S cells proteome; [2]", "result": "70631.3 and 75175.8"}]}, {"smiles": "CN[C@@H](C)C(=O)N[C@@H](C(=O)N1CCC[C@H]1C(=O)N[C@@H]1c2ccccc2C[C@@H]1OCC#CC#CCO[C@H]1Cc2ccccc2[C@H]1NC(=O)[C@@H]1CCCN1C(=O)[C@H](NC(=O)[C@H](C)NC)C1CCCCC1)C1CCCCC1", "note": "[AZD5582, reference compound]", "values": [{"measurement": "IAP degradation profile (in words)", "setting": "[1]", "result": "potent cIAP autodegradation"}, {"measurement": "Precursor intensity (DIA-NN), CLPX precursor AAAAADLANR2", "setting": "MM.1S cells proteome; [4]", "result": "16915 and 25995.2"}, {"measurement": "logFC ATP5MD", "setting": "MM.1S cells proteome; [3]", "result": -0.4905}, {"measurement": "logFC CD44", "setting": "MM.1S cells proteome; [3]", "result": -0.09493}, {"measurement": "logFC EDF1", "setting": "MM.1S cells proteome; [3]", "result": -0.1747}, {"measurement": "logFC GOT2", "setting": "MM.1S cells proteome; [3]", "result": -0.1164}, {"measurement": "logFC RRP15", "setting": "MM.1S cells proteome; [3]", "result": -0.3053}, {"measurement": "Precursor intensity (DIA-NN), RPL4 precursor AAAAAAALQAK1", "setting": "MM.1S cells proteome; [5]", "result": 331.845}, {"measurement": "Precursor intensity (DIA-NN), RPL4 precursor AAAAAAALQAK2", "setting": "MM.1S cells proteome; RL4_HUMAN (P36578), 60S ribosomal protein L4, precursor charge 2, per-replicate values (rep1, rep2)", "result": "447305 and 464651"}, {"measurement": "Precursor intensity (DIA-NN), SAMD1 precursor AAAAAATAPPSPGPAQPGPR2", "setting": "MM.1S cells proteome; [4]", "result": "15006.1 and 13237.9"}, {"measurement": "Precursor intensity (DIA-NN), ZFP91 precursor AAAAAAAAAVSR2", "setting": "MM.1S cells proteome; [4]", "result": "67729.2 and 74323"}]}, {"smiles": "CN[C@@H](C)C(=O)N[C@H](C(=O)N1C[C@@H](Oc2cccc(OCCOCCCCCCOCCCCCCNc3cccc4c3C(=O)N(C3CCC(=O)NC3=O)C4=O)c2)C[C@H]1C(=O)N[C@@H]1CCCc2ccccc21)C1CCCCC1", "note": "(stereo partly drawn) [PROTAC 25, (2S,4S)-1-((S)-2-Cyclohexyl-2-((S)-2-(methylamino)propanamido)acetyl)-4-(3-(2-((6-((6-((2-(2,6-dioxopiperidin-3-yl)-1,3-dioxoisoindolin-4-yl)amino)hexyl)oxy)hexyl)oxy)ethoxy)phenoxy)-N-((R)-1,2,3,4-tetrahydronaphthalen-1-yl)pyrrolidine-2-carboxamide]", "values": [{"measurement": "time to complete degradation of cIAP1, cIAP2 and XIAP", "setting": "[1]", "result": "≤ 3", "unit": "h"}, {"measurement": "IAP degradation profile (in words)", "setting": "[1]", "result": "pronounced pan-IAP depletion and Complete cIAP1 and XIAP depletion occurred already at 10 nM and 0.1 μM concentration was needed for the complete depletion of all IAPs"}, {"measurement": "Precursor intensity (DIA-NN), CLPX precursor AAAAADLANR2", "setting": "MM.1S cells proteome; [6]", "result": "7987.33 and 21462.9"}, {"measurement": "logFC COX5A", "setting": "MM.1S cells proteome; [3]", "result": -0.5474}, {"measurement": "logFC LMAN2", "setting": "MM.1S cells proteome; [3]", "result": -0.1147}, {"measurement": "logFC TOP1", "setting": "MM.1S cells proteome; [3]", "result": 0.3058}, {"measurement": "Precursor intensity (DIA-NN), RPL4 precursor […]1", "setting": "MM.1S cells proteome; [5]", "result": 321.394}, {"measurement": "Precursor intensity (DIA-NN), RPL4 precursor […]2", "setting": "MM.1S cells proteome; RL4_HUMAN (P36578), 60S ribosomal protein L4, precursor charge 2, per-replicate values (rep1, rep2), listed as SAB141", "result": "467864 and 464908"}, {"measurement": "Precursor intensity (DIA-NN), SAMD1 precursor AAAAAATAPPSPGPAQPGPR2", "setting": "MM.1S cells proteome; [6]", "result": "14133.9 and 10400.6"}, {"measurement": "Precursor intensity (DIA-NN), ZFP91 precursor AAAAAAAAAVSR2", "setting": "MM.1S cells proteome; [6]", "result": "72214.7 and 61349"}]}, {"smiles": "CN[C@@H](C)C(=O)N[C@H](C(=O)N1C[C@@H](Oc2cccc(OCCCCCCOCCCCCCOCCCCCCNc3cccc4c3C(=O)N(C3CCC(=O)NC3=O)C4=O)c2)C[C@H]1C(=O)N[C@@H]1CCCc2ccccc21)C1CCCCC1", "note": "(stereo partly drawn) [PROTAC 27, (2S,4S)-1-((S)-2-Cyclohexyl-2-((S)-2-(methylamino)propanamido)acetyl)-4-(3-((6-((6-((6-((2-(2,6-dioxopiperidin-3-yl)-1,3-dioxoisoindolin-4-yl)amino)hexyl)oxy)hexyl)oxy)hexyl)oxy)phenoxy)-N-((R)-1,2,3,4-tetrahydronaphthalen-1-yl)pyrrolidine-2-carboxamide]", "values": [{"measurement": "IAP degradation profile (in words)", "setting": "[1]", "result": "isoform-selective XIAP degradation"}, {"measurement": "logFC COX6C", "setting": "MM.1S cells proteome; [3]", "result": -0.5143}, {"measurement": "logFC EIF4B", "setting": "MM.1S cells proteome; [3]", "result": -0.1592}, {"measurement": "logFC HNRNPA2B1", "setting": "MM.1S cells proteome; [3]", "result": -0.1781}, {"measurement": "logFC POTEJ", "setting": "MM.1S cells proteome; [3]", "result": -0.3899}, {"measurement": "logFC TPM3", "setting": "MM.1S cells proteome; [3]", "result": -0.214}]}]}
